{
  "source": "patent US20020032183A1",
  "about": "“Use of (di-substituted-phenyl)-pyrimidinyl-imidazole derivatives as JNK-inhibitors” (priority 2000, published 2002)",
  "system": "Rat superior cervical ganglion neurons",
  "assay": "Sympathetic neuronal survival assay (no NGF exposure; GAP-43 ELISA and cell counts)",
  "format": "cell-based",
  "conditions": "for Survival, ELISA Data Mean / Survival, Cell Counts Mean: 48 hours; for Survival, ELISA Data Mean: GAP-43 ELISA; for Survival, Cell Counts Mean: immunostained neurons per well",
  "procedure": "Activation of c-jun-N-terminal kinase (JNK) has been implicated in apoptosis in sympathetic neurons. An inhibitor of JNK, Example 2, was tested for neuroprotective effects in two models of sympathetic neuronal cell death.\nIn the first model, ganglia were dissociated and plated directly into culture plates in the presence of compound for 48 hours, then fixed and survival assayed using an ELISA for GAP-43. This model will hereafter be referred to as the ‘survival assay’.\nGanglia were enzymatically dissociated using 0.25% trypsin for 45 minutes. The trypsin was then inhibited using Dulbecco's MEM (DMEM) supplemented with 10% fetal bovine serum, and the cells mechanically triturated using a pipette tip to form a single cell suspension. Neurons in the suspension were counted using a haemocytometer, and plated at a density of 3000-5000 neurons per well in poly-D-lysine and laminin coated 96 well tissue culture clusters in DMEM supplemented with B27 serum substitute. Cultures were then incubated at 37° C./5% CO2. One hour following plating, cultures were either treated with NGF 25 ng/ml or with L-790,984 at a range of concentrations for the NGF deprivation and survival assays respectively.\nCultures for the NGF deprivation assay were returned to the incubator for 4 days. Following this, the medium was aspirated, plates washed once with DMEM/B27, and the cultures treated with Example 2 at concentrations ranging from 1 nM to 10 μM, together with an anti-NGF blocking antibody at 250 ng/ml. Cultures were then returned to the incubator for a further 72 hours prior to fixation and survival quantification. Cultures treated with Example 2 immediately for the survival assay were returned to the incubator for 48 hours; cultures were then fixed and survival quantified using the GAP-43 ELISA.\nCultures were fixed by the addition of an equal volume 4% paraformaldehyde to each well for 10 minutes; this was then aspirated, and replaced by a further volume of 4% paraformaldehyde for a further 20 minutes at room temperature. Plates were then washed three times with PBS/0.3% TX100, and non-specific binding sites blocked by the addition of 5% normal horse serum (NHS) in PBS/0.3% TX100. Plates were incubated at room temperature for one hour, then the blocking serum was aspirated without washing and replaced with primary antibody. The primary antibody used was a mouse monoclonal antibody raised against Growth Associated Protein 43 (Sigma), prepared at a dilution of 1:500 in PBS/0.3% TX100/5% NHS. Primary antibody was added to all sample wells, with four control wells returned to blocking serum to act as minus primary control. Plates were then refrigerated overnight at 4° C. The next day, plates were washed three times with PBS/0.3 TX100 and secondary antibody added. The secondary antibody used was peroxidase conjugated sheep anti-mouse IgG, and was added at a dilution of 1:1000 in PBS/0.3% TX100/5% NHS. Plates were incubated for 1 hour at room temperature, then washed three times with PBS/0.3% TX100, and K-Blue insoluble peroxidase substrate added for 30 minutes at room temperature. The optical density of the plates was then read at 650 nm, and the survival of neurons calculated and expressed as percentage of the control response.\nCell counts were performed on one sample plate for each model of sympathetic neuronal cell death, by the addition of a tertiary antibody to the plate, followed by avidin-biotin complex and an insoluble peroxidase substrate. Following quantification of optical density, plates were washed three times in PBS/0.3% TX100, and non-specific sites blocked using PBS/0.3% TX100/5% normal rabbit serum (“NRS”). Plates were incubated for one hour at room temperature, then the blocking serum was aspirated and replaced with biotinylated rabbit anti-sheep IgG at a dilution of 1:500 in PBS/0.3% TX10O/5% NRS. […]",
  "data": [
    {"smiles": "CCCn1c(C2CCN(C)CC2)nc(-c2ccc(Cl)c(Cl)c2)c1-c1ccnc(NC2CC2)n1", "note": "[Example 2, Cyclopropyl-{4-[5-(3,4-dichlorophenyl)-2-[(1-methyl)-piperidin]-4-yl-3-propyl-3H-imidazol-4-yl]-pyrimidin-2-yl}amine]", "values": [
      {"measurement": "Survival, ELISA Data Mean", "setting": "0.01 μM", "result": 112.10},
      {"measurement": "Survival, Cell Counts Mean", "setting": "0.01 μM", "result": 115.50},
      {"measurement": "Survival, ELISA Data Mean", "setting": "0.03 μM", "result": 99.19},
      {"measurement": "Survival, Cell Counts Mean", "setting": "0.03 μM", "result": 127.25},
      {"measurement": "Survival, ELISA Data Mean", "setting": "0.1 μM", "result": 131.45},
      {"measurement": "Survival, Cell Counts Mean", "setting": "0.1 μM", "result": 170.50},
      {"measurement": "Survival, ELISA Data Mean", "setting": "0.3 μM", "result": 209.68},
      {"measurement": "Survival, Cell Counts Mean", "setting": "0.3 μM", "result": 267.50},
      {"measurement": "Survival, ELISA Data Mean", "setting": "1 μM", "result": 350.81},
      {"measurement": "Survival, Cell Counts Mean", "setting": "1 μM", "result": 363.00},
      {"measurement": "Survival, ELISA Data Mean", "setting": "3 μM", "result": 270.16},
      {"measurement": "Survival, Cell Counts Mean", "setting": "3 μM", "result": 321.00},
      {"measurement": "Concentrations at which the survival response declines", "setting": "data not shown", "result": "above 3 μM"},
      {"measurement": "Concentrations at which the survival response was significant", "setting": "quantified by ELISA", "result": "≥ 300", "unit": "nM"}
    ]}
  ]
}
